Data: patent US20090209527A1, “Methods for Using Rapamycin Analogues in the Treatment of Neurological Disorders” (Wyeth, priority 2008, published 2009)

Legend:
cortical neuron cultures = experiment: Cortical neuron assay (neurite outgrowth in dissociated cortical neuron cultures); type: cell-based, rat
Experimental: Dissociated cortical neuron cultures were prepared as previously described (Liu et al., Screening of Immunophilin Ligands by Quantitative Analysis of Neurofilament Expression and Neurite Outgrowth in Cultured Neurons and Cells, J. Neurosci. Methods, 2007 Jul. 30; 163(2):310-20).
Briefly, embryonic day 15 rat fetuses were collected and dissected in ice-cold PBS. Dissected cortices were pooled together and transferred to an enzymatic dissociation medium containing papain. After 30 minutes, the tissue was mechanically triturated with a fire-polished glass Pasteur pipette. Single-cell suspensions in complete media were seeded on poly-L-ornithine and laminin coated 96-well plates. After 24 hours, cultures were treated with various concentrations of compound for 72 hours. The cultures were then fixed and stained with an anti-tubulin primary antibody (TUJ-1) and a fluorescent-tagged secondary antibody. Neurite outgrowth was determined by using the Enhanced Neurite Outgrowth (ENO) algorithm with the Cellomics ArrayScan and expressed as average neurite length or total neurite length per cell.

pMCAO in rats = experiment: Permanent occlusion of middle cerebral artery (pMCAO), Example 10, behavioral deficit scoring over 21 days; type: in vivo, Wistar rats; conditions: 10 mg/kg i.v. 1.5, 5.5, 24, 48 and 72 hours post ischemia
Experimental: Administration of Compound of Example 2—10 mg/kg i.v. 1.5, 5.5, 24, 48, and 72 hours post ischemia.
Adult male Wistar rats (Charles River, Wilmington, Mass.) 270 g to 300 g were anesthetized with 3% isoflurane in 70% nitrous oxide and 30% oxygen through a nose cone. Temperature was maintained at 37° C. throughout the surgery using a heating lamp. Permanent occlusion of MCAO was induced by electro cauterization of the distal portion of the MCA (via a craniotomy) with a 90 minute ligation of both carotid arteries to interrupt collateral circulation (Chen S T, Hsu C Y, Hogan E L, Maricq H Balentine J D (1986) A model of focal ischemic stroke in the rat: reproducible extensive cortical infarction. Stroke 17:738-743). Compound was administered 10 mg/kg i.v. 1.5, 5.5, 24, 48, and 72 hours post ischemia. Rats were kept for 21 days for long-term functional recovery evaluation. […] Rats extending both forelimbs toward the table were scored as 0, flexing contralateral limb toward the body and/or rotating the contralateral shoulder and limb medially were scored as 1, and rolling up the body toward the contralateral side and attempting to grasp the tail were scored as 2. […] Rats retracting hind limb back on bench top immediately were scored as 0, delaying (>2 seconds) were scored as 1, and unable to retract hind limb were score as 2. […]

Structure (SMILES): CO[C@H]1C[C@@H]2CC[C@@H](C)[C@@](O)(O2)C(=O)C(=O)N2CCCC[C@H]2C(=O)O[C@H]([C@H](C)C[C@@H]2CC[C@@H](O)[C@H](OC)C2)CC(=O)[C@H](C)/C=C(\C)[C@@H](O)[C@@H](OC)C(=O)[C@H](C)C[C@H](C)[C@@H]2CC[C@H](/C=C/1C)ON2c1ccccc1 [Example 2, 9,27-dihydroxy-3-{2-[4-hydroxy-3-methoxycyclohexyl]-1-methylethyl}-10,21-dimethoxy-6,8,12,14,20,26-hexamethyl-37-phenyl-4,9,10,12,13,14,15,16,17,18,21,22,23,24,25,26,27,32,33,34,34a-henicosahydro-3H-23,27-epoxy-18,15-(epoxyimino)pyrido[2,1-c][1,4]oxazacyclohentriacontine-1,5,11,28,29(6H,31H)-pentone]
- EC50 (cortical neuron cultures; Rattus norvegicus, Cortical neurone, 72 hours treatment, neurite outgrowth, read-out: EC50 in cortical neuron assays): < 1 µM
- neuronal survival and neurite outgrowth in cultured cortical neurons (cortical neuron cultures; summary statement): promotes neuronal survival and neurite outgrowth
- behavior deficit scoring (total score 0 to 12) following pMCAO (pMCAO in rats): statistically significant reduction of behavior deficit scoring
